US8993523B2, “Dimeric IAP inhibitors” (Novartis AG, priority 2010, dated 2015)

Key:
cIAP1-BIR3 = molecular target: T1, cIAP1-BIR3 (Homo sapiens, UniProt Q13490); test: Biacore SPR solution inhibition (competition with smac7mer peptide) binding assay, cIAP1-BIR3; conditions: 6 nM cIAP1-BIR3, competition with immobilised smac7mer peptide, 25° C.; read-out: CIAP-BIR3 Binding Biacore (Competitive) EC50
T1 construct: with either 100 nM XIAP-BIR3 or 6 nM cIAP1-BIR3
From the text: (§1) The present method includes utility of a Surface plasmon resonance (SPR)-based biosensor (Biacore™ GE Healthcare, Uppsala, Sweden) to examine competition between the compounds of the present invention and smac7mer peptide for XIAP-BIR3 and cIAP1-BIR3 binding groove occupancy.
(§2) Biacore™ utilizes the phenomenon of surface plasmon resonance (SPR) to detect and measure binding interactions. In a typical Biacore experiment, one of the interacting molecules is immobilized on a flexible dextran matrix while the interacting partner is flowed over the derivatized surface. A binding interaction results in an increase in mass on the sensor surface and a corresponding direct change in the refractive index of the medium in the vicinity of the sensor surface. Changes in refractive index or signal are recorded in resonance units (R.U.) Signal changes due to association and dissociation of complexes are monitored in a non-invasive manner, continuously and in real-time, the results of which are reported in the form of a sensorgram.
(§3) Solution Inhibition Assay Format:
(§4) Biacore™ T100 (GE Healthcare, Uppsala, Sweden) was used to conduct all experiments reported herein. Sensor surface preparation and interaction analyses were performed at 25° C. Buffer and Biacore reagents were purchased from GE Healthcare. Running buffer containing 10 mM Hepes, pH7.4, 150 mM sodium chloride, 1.25 mM Dithiothreitol, 2% Dimethyl sulfoxide and 0.05% polysorbate 20 was utilized throughout all experiments.
(§5) Biotinylated smac7mer peptide was diluted to 10 nM in running buffer and captured onto a sensor surface pre-derivatized with streptavidin (sensor chip SA) towards peptide surface densities in the range 40-100 R.U. Peptide captured surfaces were blocked with 500 μM PEO2-Biotin (Thermo Scientific).
(§6) Interaction analyses were performed by first equilibrating each compound within a six point seven fold compound dilution series in the range 1 μM to 0.06 nM with either 100 nM XIAP-BIR3 or 6 nM cIAP1-BIR3 for at least one hour during instrument start-up procedures. Protein compound mixtures were then injected over reference and smac7mer peptide surfaces in series for 60 seconds at a flow-rate of 60 μL/min. Surface regeneration was performed at the end of each analysis cycle by a 30 second injection of 10 mM Glycine, pH 2.5, 1M Sodium Chloride, 0.05% polysorbate 20. Additionally, control compound samples and control XIAP-BIR3 or cIAP1-BIR3 samples were prepared and run at regular intervals to monitor surface and assay performance.
(§7) Data analyses were carried out using Biacore™ T100 evaluation software v2.0 to validate assay quality. Binding level report points were plotted versus logarithmic compound concentration values and analyzed in Graphpad prism 5 via non-linear regression using a one-site competition model. EC50 values were generated and used as a measure of inhibitor potency.

XIAP-BIR3 = molecular target: T2, XIAP-BIR3 (Homo sapiens, UniProt P98170); test: Biacore SPR solution inhibition (competition with smac7mer peptide) binding assay, XIAP-BIR3; conditions: 100 nM XIAP-BIR3, competition with immobilised smac7mer peptide, 25° C.; read-out: XIAP-BIR3 Binding Biacore (Competitive) EC50
T2 construct: with either 100 nM XIAP-BIR3 or 6 nM cIAP1-BIR3
T2 sequence (P98170 241-356 limits assumed): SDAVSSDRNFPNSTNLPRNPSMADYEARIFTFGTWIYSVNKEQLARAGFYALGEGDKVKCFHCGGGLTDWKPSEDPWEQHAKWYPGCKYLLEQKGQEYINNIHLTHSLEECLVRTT
From the text: as §1, §2, §3, §4, §5, §6, §7

Panc3.27 tumor cells = test: Cellular assay: Panc3.27 tumor cell proliferation (Cell Titer Glo); format: cell-based; conditions: Panc3.27 cells, 72 hour treatment, read-out: PANC proliferation IC50
Method: Cellular Assay—Treatment of Panc3.27 Tumor Cells with Dimeric IAP Antagonists
On day one adherent Panc3.27 cells are plated into two 96-well, clear, flat bottom plates. All wells in row A contain 90 uL of media. All wells in rows B-G contain a total volume of 90 uL per well and 4000 cells per well for Panc3.27 cell lines. Plates are then incubated overnight for 18 hours at 37° C., 5% CO2.
On day two cells are treated with the compounds of formula M-L-M′. Treatments are done in triplicate. The compounds are first serially diluted in DMSO and then added to media giving a final concentration of 0.2% DMSO when added to cells. Cells are treated with 10 uL of serially diluted compounds of formula M-L-M′ at a final concentration of 1000 nM, 200 nM, 40 nM, 8 nM, 1.6 nM, 0.32 nM, 0.06 nM, 0.013 nM, 0.0026 nM, and one untreated well. Plate two is used as a time zero plate.
To measure cell viability 50 uL of Cell Titer Glo (CTG) solution is added to row A, media only and B, cells and media. CTG is purchased from Promega Corporation catalog number G7573. The solution is prepared according to manufacturer's instructions. CTG measures the amount of ATP released from viable cells that is proportional to the number of cells in each well. After incubating for ten minutes with CTG plates are measured on a luminescent reader at 700 nm wavelength. Read time is approximately one second per well for a 96-well plate.
On day five 50 uL of CTG is added to plate one, rows A-G, incubated for 10 minutes at room temperature and read on a luminescent reader. Raw data is adjusted to account for the time zero plate as well as background noise. Triplicate values are averaged and percent control growth is calculated. Percent control growth is calculated using the following logical test: If well read data point (a) is greater than time zero data point (t=0), then 100*[(a)−(t=0)]/[(72 hour total growth)−(t=0)], OR 100*[(a)−(t=0)]/[(t=0)]. Data is represented by line graph with the concentration of compound on the x axis and percent control growth on the y axis.

T1 sequence (Q13490 260-352 limits assumed): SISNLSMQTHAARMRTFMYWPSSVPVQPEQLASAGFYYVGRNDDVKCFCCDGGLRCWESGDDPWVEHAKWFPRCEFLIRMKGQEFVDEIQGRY

Compound | EC50 (cIAP1-BIR3) | EC50 (XIAP-BIR3) | IC50 (Panc3.27 tumor cells)
CN[C@@H](C)C(=O)N[C@H](C(=O)N1CCC[C@H]1c1cncc(-n2cc(C(=O)NCc3ccc(CNC(=O)c4cn(-c5cncc([C@@H]6CCCN6C(=O)[C@@H](NC(=O)[C@H](C)NC)C(C)C)c5)c5ccccc45)cc3)c3ccccc32)c1)C(C)C [Example 2P, (S,S,S)—N,N′-(1,4-phenylenebis(methylene))bis(1-(5-((S)-1-((S)-3-methyl-2-((S)-2-(methylamino)propanamido)butanoyl)pyrrolidin-2-yl)pyridin-3-yl)-1H-indole-3-carboxamide)] | 1.21 to 1.23 nM | 70.9 to 71 nM | < 0.0026 nM
CN[C@@H](C)C(=O)N[C@H](C(=O)N1CCC[C@H]1c1cncc(-n2cc(C(=O)N3CCN(C(=O)c4cn(-c5cncc([C@@H]6CCCN6C(=O)[C@@H](NC(=O)[C@H](C)NC)C(C)C)c5)c5ccccc45)CC3)c3ccccc32)c1)C(C)C [Example 2O, (2S,2′S)—N,N′-((2S,2′S)-1,1′-((2S,2′S)-2,2′-(5,5′-(3,3′-(piperazine-1,4-diylbis(oxomethylene))bis(1H-indole-3,1-diyl))bis(pyridine-5,3-diyl))bis(pyrrolidine-2,1-diyl))bis(3-methyl-1-oxobutane-2,1-diyl))bis(2-(methylamino)propanamide)] | 2.17 to 2.18 nM | 39 nM | 0.54 to 1.37 nM
CN[C@@H](C)C(=O)N[C@H](C(=O)N1CCC[C@H]1c1cncc(-n2cc(C(=O)NCCCCCCCCCCCNC(=O)c3cn(-c4cncc([C@@H]5CCCN5C(=O)[C@@H](NC(=O)[C@H](C)NC)C(C)C)c4)c4ccccc34)c3ccccc32)c1)C(C)C [Example 2H, (S,S,S)—N,N′-(undecane-1,11-diyl)bis(1-(5-((S)-1-((S)-3-methyl-2-((S)-2-(methylamino)propanamido)butanoyl)pyrrolidin-2-yl)pyridin-3-yl)-1H-indole-3-carboxamide)] | 1 to 1.02 nM | 60.3 to 60.8 nM | < 0.0026 nM
CN[C@@H](C)C(=O)N[C@H](C(=O)N1CCC[C@H]1c1cncc(-n2cc(C(=O)N[C@H]3CC[C@H](NC(=O)c4cn(-c5cncc([C@@H]6CCCN6C(=O)[C@@H](NC(=O)[C@H](C)NC)C(C)C)c5)c5ccccc45)CC3)c3ccccc32)c1)C(C)C [Example 2M, 1-(5-((S)-1-((S)-3-methyl-2-((S)-2-(methylamino)propanamido)-butanoyl)pyrrolidin-2-yl)pyridin-3-yl)-N-((1S,4S)-4-(1-(5-((S)-1-((S)-3-methyl-2-((S)-2-(methylamino)propanamido)butanoyl)pyrrolidin-2-yl)pyridin-3-yl)-1H-indole-3-carboxamido)cyclohexyl)-1H-indole-3-carboxamide] | 0.7 to 0.71 nM | 26.1 to 26.4 nM | < 0.0026 nM
CN[C@@H](C)C(=O)N[C@H](C(=O)N1CCC[C@H]1c1cncc(-n2cc(C(=O)NCCCCCCNC(=O)c3cn(-c4cncc([C@@H]5CCCN5C(=O)[C@@H](NC(=O)[C@H](C)NC)C(C)C)c4)c4ccccc34)c3ccccc32)c1)C(C)C [Example 2L, (S,S,S)—N,N′-(hexane-1,6-diyl)bis(1-(5-((S)-1-((S)-3-methyl-2-((S)-2-(methylamino)propanamido)butanol)pyrrolidin-2-yl)pyridin-3-yl)-1H-indole-3-carboxamide)] | 1.71 to 1.73 nM | 25.5 to 25.8 nM | < 0.0026 nM

Next, values leading:

EC50 (cIAP1-BIR3) | EC50 (XIAP-BIR3) | IC50 (Panc3.27 tumor cells) | Compound
2.24 to 2.27 nM | 47.9 to 51.6 nM | < 0.0026 nM | CN[C@@H](C)C(=O)N[C@H](C(=O)N1CCC[C@H]1c1cncc(-n2cc(C(=O)NCc3ccc(-c4ccc(CNC(=O)c5cn(-c6cncc([C@@H]7CCCN7C(=O)[C@@H](NC(=O)[C@H](C)NC)C(C)C)c6)c6ccccc56)cc4)cc3)c3ccccc32)c1)C(C)C [Example 2G, (S,S,S)—N,N′-(biphenyl-4,4′-diylbis(methylene))bis(1-(5-((S)-1-((S)-3-methyl-2-((S)-2-(methylamino)propanamido)butanoyl)pyrrolidin-2-yl)pyridin-3-yl)-1H-indole-3-carboxamide)]
0.6 to 1.1 nM | 49.8 to 52.2 nM | 0.14 to 2.86 nM | (S,S,S)—N,N′-(propane-1,3-diyl)bis(1-(5-((S)-1-((S)-3-methyl-2-((S)-2-(methylamino)propanamido)butanoyl)pyrrolidin-2-yl)pyridin-3-yl)-1H-indole-3-carboxamide) [Example 2A]
0.5 to 0.51 nM | 19.7 to 20.8 nM | 0.18 to 1.21 nM | CN[C@@H](C)C(=O)N[C@H](C(=O)N1CCC[C@H]1c1cncc(-n2cc(C(=O)NCCCOCCCNC(=O)c3cn(-c4cncc([C@@H]5CCCN5C(=O)[C@@H](NC(=O)[C@H](C)NC)C(C)C)c4)c4ccccc34)c3ccccc32)c1)C(C)C [Example 2I]
0.52 to 1.83 nM | 47 to 54 nM | 0.26 to 0.44 nM | CN[C@@H](C)C(=O)N[C@H](C(=O)N1CCC[C@H]1c1cncc(-n2cc(C(=O)NCCCOCCOCCCNC(=O)c3cn(-c4cncc([C@@H]5CCCN5C(=O)[C@@H](NC(=O)[C@H](C)NC)C(C)C)c4)c4ccccc34)c3ccccc32)c1)C(C)C [Example 2E, (S,S,S)—N,N′-(3,3′-(ethane-1,2-diylbis(oxy))bis(propane-3,1-diyl))bis(1-(5-((S)-1-((S)-3-methyl-2-((S)-2-(methylamino)propanamido)butanoyl)pyrrolidin-2-yl)pyridin-3-yl)-1H-indole-3-carboxamide)]
0.97 to 0.98 nM | 42 to 79.9 nM | 0.1 to 0.27 nM | CN[C@@H](C)C(=O)N[C@H](C(=O)N1CCC[C@H]1c1cncc(-n2cc(C(=O)NCCCOCCOCCOCCCNC(=O)c3cn(-c4cncc([C@@H]5CCCN5C(=O)[C@@H](NC(=O)[C@H](C)NC)C(C)C)c4)c4ccccc34)c3ccccc32)c1)C(C)C [Example 2C, (S,S,S)—N,N′-(3,3′-(2,2′-oxybis(ethane-2,1-diyl)bis(oxy))bis(propane-3,1-diyl))bis(1-(5-((S)-1-((S)-3-methyl-2-((S)-2-(methylamino)propanamido)-butanoyl)pyrrolidin-2-yl)pyridin-3-yl)-1H-indole-3-carboxamide)]
1.13 to 1.15 nM | 19.3 to 19.5 nM | 0.18 to 1.21 nM | CN[C@@H](C)C(=O)N[C@H](C(=O)N1CCC[C@H]1c1cncc(-n2cc(C(=O)NCCCCNC(=O)c3cn(-c4cncc([C@@H]5CCCN5C(=O)[C@@H](NC(=O)[C@H](C)NC)C(C)C)c4)c4ccccc34)c3ccccc32)c1)C(C)C [Example 2J, (S,S,S)—N,N′-(butane-1,4-diyl)bis(1-(5-((S)-1-((S)-3-methyl-2-((S)-2-(methylamino)propanamido)butanol)pyrrolidin-2-yl)pyridin-3-yl)-1H-indole-3-carboxamide)]
